Data reported in patent US6949533B2, “6,7-Oxygenated steroids and uses related thereto” (Inflazyme Pharmaceuticals Ltd., priority 1996, dated 2005).

Key:
rabbit platelets = assay: PAF-induced aggregation of rabbit platelets; type: cell-based; conditions: Oryctolagus cuniculus, Platelet; 80 μM compound, 5 min preincubation; PAF-stimulated rabbit platelets (title: 0.1 nM PAF); read-out: % Inhibition at 80 μM
Excerpt: Within the present invention, it was discovered that the polyhydroxylated steroids as well as intermediates described in previous sections inhibited the aggregation of platelets caused by platelet activating factor (PAF). PAF is a local mediator of thrombosis and prevention of the formation of blood clots has direct implication in the treatment of thrombosis and associated cardiovascular diseases. The assay system used to evaluate the ability of compounds to inhibit the aggregation of platelets in response to exogenous stimuli is indicative of anti-thrombotic or thrombolytic activity.
Platelets were isolated from rabbit blood and prepared at a density of 2.4×10^8 cells/ml in Tyrodes buffer (pH 7.2) containing Ca^2+. Platelets were incubated with each compound for 5 min at 37° C. prior to stimulation. Platelets were stimulated with 1 nM platelet activating factor (PAF; EC75) in the presence of each of the compounds and aggregation was monitored for 5 min. Compounds were solubilized in dimethylsulfoxide (DMSO) and aggregation was measured as a percentage of the response to 1 nM PAF obtained in the presence of the appropriate concentration of DMSO. The degree of inhibition caused by each sample was calculated using the control response in the presence of DMSO equal to 100%.

[1] = test system: Ascaris suum sensitized sheep; assay: allergic sheep model of asthma; type: in vivo
Experimental: The model is conscious, where the animals are breathing spontaneously, allowing measurement of airways bronchoconstriction and acute airway hyperresponsiveness.
Sheep which were naturally sensitized to Ascaris suum (30-40 Kg) were intubated with an endotracheal tube and a balloon catheter, positioned in the lower esophagus. Pleural pressure was estimated with the esophageal catheter, while later pressure was measured with a side-hole catheter advanced through and positioned distal to the tip of the endotracheal tube. Transpulmonary pressure differences between the trachea and pleural pressures were measured with a differential pressure transducer catheter system.
The proximal end of the endotracheal tube was connected to a Fleisch pneumotachograph in order to measure flow changes. Pulmonary resistance (RL) was calculated from pressure measurements of transpulmonary pressure, respiratory volume (from digital integration of the flow signal) and flow by the mid-flow technique. SRL was calculated as RL Vtg (Vtg=thoracic gas volume).
Aerosols generated using a disposable nebulizer, were directed into a T-piece connected to a Harvard respirator and the tracheal tube in series. The aerosol delivery was controlled using a dosimeter system, consisting of a solenoid valve and compressed air (20 psi) activated at the start of each inspiratory cycle. Aerosols were delivered in tidal volumes of 500 ml at […].
Selected compounds from the invention were dissolved as a stock solution in DMSO and diluted in saline. Animals received either, 400 μg/Kg of compound 30 min prior to challenge and 4 hours after challenge, or 400 μg/Kg of compound for 4 days with the last dose 2 hours before challenge. Ascaris suum extract was diluted in phosphate buffered saline to a concentration of 82000 protein nitrogen units/ml and delivered by aerosol over 20 min. Carbachol was dissolved in PBS to concentrations of 0.25, 0.5 1.0, 2.0, 4.0% wt/vol. Each animal served as its own control throughout the study.
Specific lung resistance (SRL) was measured every 60 min for 8 hours after antigen challenge. Airways hyperresponsiveness to carbachol was measured 24 hours after the initial challenge.

[2] = 400 μg/kg/day for 4 days, inhalation, Baseline

## C/C=C1/CCC2C3C(CC[C@]12C)[C@@]1(C)CC[C@@H](O)CC1[C@@H](O)[C@@H]3O (stereo partly drawn) [Compound 330, 3α,6α,7β-trihydroxy-17(20)-pregnene]
Rabbit platelets
  inhibition at 80 µM: 20.9%
[1]; 400 μg/kg inhalation 30 min prior to and 4 hours after challenge, Baseline
  PC400 Hyperresponsiveness to carbachol: 26.01 ± 3.06 Breath Units
[1]; 400 μg/kg inhalation 30 min prior to and 4 hours after challenge, Post-Challenge (24 hours)
  PC400 Hyperresponsiveness to carbachol: 22.79 ± 6.11 Breath Units
[1]; 400 μg/kg inhalation 30 min prior to and 4 hrs after challenge, 1 hr
  Specific Lung Resistance: 117 ± 11 % Baseline
[1]; 400 μg/kg inhalation 30 min prior to and 4 hrs after challenge, 2 hr
  Specific Lung Resistance: 49 ± 11 % Baseline
[1]; 400 μg/kg inhalation 30 min prior to and 4 hrs after challenge, 3 hr
  Specific Lung Resistance: 32 ± 6 % Baseline
[1]; 400 μg/kg inhalation 30 min prior to and 4 hrs after challenge, 4 hr
  Specific Lung Resistance: 20 ± 6 % Baseline
[1]; 400 μg/kg inhalation 30 min prior to and 4 hrs after challenge, 5 hr
  Specific Lung Resistance: 14 ± 4 % Baseline
[1]; 400 μg/kg inhalation 30 min prior to and 4 hrs after challenge, 6 hr
  Specific Lung Resistance: 14 ± 5 % Baseline
[1]; 400 μg/kg inhalation 30 min prior to and 4 hrs after challenge, 6.5 hr
  Specific Lung Resistance: 18 ± 6 % Baseline
[1]; 400 μg/kg inhalation 30 min prior to and 4 hrs after challenge, 7 hr
  Specific Lung Resistance: 10 ± 2 % Baseline
[1]; 400 μg/kg inhalation 30 min prior to and 4 hrs after challenge, 7.5 hr
  Specific Lung Resistance: 17 ± 8 % Baseline
[1]; 400 μg/kg inhalation 30 min prior to and 4 hrs after challenge, 8 hr
  Specific Lung Resistance: 5 ± 3 % Baseline
[1]; 400 μg/kg inhalation 30 min prior to and 4 hrs after challenge, Baseline
  Specific Lung Resistance: 2 ± 5 % Baseline
[1]; 400 μg/kg inhalation 30 min prior to and 4 hrs after challenge, Challenge (0)
  Specific Lung Resistance: 268 ± 35 % Baseline
[1]; 400 μg/kg inhalation 30 min prior to and 4 hrs after challenge, −0.5 hr
  Specific Lung Resistance: 0 ± 4 % Baseline
[1]; 400 μg/kg/day for 4 days, inhalation, 1 hr
  Specific Lung Resistance: 34.00 ± 10.75 % Baseline
[1]; 400 μg/kg/day for 4 days, inhalation, 2 hr
  Specific Lung Resistance: 11.50 ± 6.18 % Baseline
[1]; 400 μg/kg/day for 4 days, inhalation, 3 hr
  Specific Lung Resistance: −15.00 ± 37.67 % Baseline
[1]; 400 μg/kg/day for 4 days, inhalation, 4 hr
  Specific Lung Resistance: 4.00 ± 1.78 % Baseline
[1]; 400 μg/kg/day for 4 days, inhalation, 5 hr
  Specific Lung Resistance: −4.50 ± 4.17 % Baseline
[1]; 400 μg/kg/day for 4 days, inhalation, 6 hr
  Specific Lung Resistance: 7.75 ± 9.75 % Baseline
[1]; 400 μg/kg/day for 4 days, inhalation, 6.5 hr
  Specific Lung Resistance: 5.50 ± 4.87 % Baseline
[1]; 400 μg/kg/day for 4 days, inhalation, 7 hr
  Specific Lung Resistance: 10.75 ± 4.91 % Baseline
[1]; 400 μg/kg/day for 4 days, inhalation, 7.5 hr
  Specific Lung Resistance: 4.00 ± 2.35 % Baseline
[1]; 400 μg/kg/day for 4 days, inhalation, 8 hr
  Specific Lung Resistance: 3.25 ± 4.73 % Baseline
[1]; [2]
  PC400 Hyperresponsiveness to carbachol: 21.26 ± 2.75 Breath Units
  Specific Lung Resistance: 5.25 ± 4.50 % Baseline
[1]; 400 μg/kg/day for 4 days, inhalation, Challenge (0)
  Specific Lung Resistance: 126.00 ± 19.11 % Baseline
[1]; 400 μg/kg/day for 4 days, inhalation, Post-Challenge (24 hours)
  PC400 Hyperresponsiveness to carbachol: 21.21 ± 3.10 Breath Units
[1]; 400 μg/kg/day for 4 days, inhalation, −0.5 hr
  Specific Lung Resistance: −3.75 ± 4.29 % Baseline
